Experimental data: article PMC4645160, “Targeting kinases with anilinopyrimidines: discovery of N-phenyl-N’-[4-(pyrimidin-4-ylamino)phenyl]urea derivatives as selective inhibitors of class III receptor tyrosine kinase subfamily” (Scientific Reports, 2015)

Key:
A549 cells = assay: MTT cytotoxicity assay, A549 lung cancer cells; format: cell-based, human; conditions: for IC50: Homo sapiens, A549, 72 h, MTT test, 72 h of drug treatment, read-out: A549 IC50 (μM) ± SD; for Potency relative to SU (A549): ratio between IC50 of sunitinib and IC50 of tested compound
Protocol: (§1) Compounds active against at least one kinase among EGFR and class III RTKs were evaluated for their cytotoxic properties against two different human cancer cell lines, namely non small cells A549 lung cancer cells (sensitive to EGFR inhibitors)[46] and pancreatic BxPC3 adenocarcinoma (sensitive to both PDGFRβ and EGFR inhibitors)[47][48] cells. […] The results, expressed as IC50 values (μM) calculated from the dose-survival curves obtained after 72 h of drug treatment from the MTT test, are reported in Table 1.
(§2) All compounds, except derivative 27, were dissolved in DMSO just before the experiment, and a calculated amount of drug solution was added to the cell growth medium to a final solvent concentration of 0.5%, which had no discernible effect on cell killing. Compound 27 was dissolved in a 0.9% NaCl solution just before the experiment.
(§3) Human lung (A549), breast (MCF-7), pancreas (BxPC3), and colon (LoVo) carcinoma cell lines along with melanoma (A375) were obtained from American Type Culture Collection (ATCC, Rockville, MD). Human non-tumor embryonic kidney HEK293 cells were obtained from European Collection of Cell Cultures (ECACC, Salisbury, UK). Human cervical carcinoma A431cells were kindly provided by Prof. F. Zunino (Division of Experimental Oncology B, Istituto Nazionale dei Tumori, Milan, Italy). Human ovarian cancer 2008 cells were kindly provided by Prof. G. Marverti (Dept. of Biomedical Science of Modena University, Italy). Cell lines were maintained in the logarithmic phase at 37 °C in a 5% carbon dioxide atmosphere using the following culture media containing 10% fetal calf serum (Euroclone, Milan, Italy), antibiotics (50 units ∙ mL^−1 penicillin and 50 μg ∙ mL^−1 streptomycin) and 2 mM l-glutamine: i) RPMI-1640 medium (Euroclone) for MCF-7, A431, BxPC3 and 2008 cells; ii) F-12 HAM’S (Sigma Chemical Co.) for A549 and LoVo cells; iii) D-MEM medium (Euroclone) for HEK293 cells.
(§4) The growth inhibitory effect towards human cell lines was evaluated by means of MTT (tetrazolium salt reduction) assay. Briefly, 3–8 ∙ 10^3 cells/well, dependent upon the growth characteristics of the cell line, were seeded in 96-well microplates in growth medium (100 μL) and then incubated at 37 °C in a 5% carbon dioxide atmosphere. After 24 h, the medium was removed and replaced with a fresh one containing the test compound at the appropriate concentration. Triplicate cultures were established for each treatment. After 72 h, each well was treated with 10 μL of a 5 mg ∙ mL-1 MTT (3-(4,5-dimethylthiazol-2-yl)-2,5-diphenyltetrazolium bromide) saline solution, and after 5 h additional incubation, 100 μL of a sodium dodecylsulfate (SDS) solution in HCl 0.01 M were added. After overnight incubation, the inhibition of cell growth induced by the tested complexes was detected by measuring the absorbance of each well at 570 nm using a Bio-Rad 680 microplate reader (Bio-Rad, Hercules, CA). Mean absorbance for each drug dose was expressed as a percentage of the control untreated well absorbance and plotted vs drug concentration.

BxPC3 cells = assay: MTT cytotoxicity assay, BxPC3 pancreatic adenocarcinoma cells; format: cell-based, human; conditions: for IC50: Homo sapiens, BXPC-3, MTT test, 72 h of drug treatment, read-out: BxPC3 IC50 (μM) ± SD; for Potency relative to SU (BxPC3): ratio between IC50 of sunitinib and IC50 of tested compound
Protocol: as §1, §2, §3, §4

panel of 48 kinases = assay: KinomeScan primary screening (POC) at 10 μM; format: binding, human; conditions: POC values
Source text: Synthesized compounds were screened against a panel of 48 kinases selected within the ScanEDGE subset of DiscoverX (http://www.discoverx.com/services/drug-discovery-development-services/kinase-profiling/kinomescan/scanedge). The ScanEDGE includes 97 kinases and is an economical approach to assess compounds selectivity throughout the human kinome. All the wt-TKs along with some relevant mutants of Abl1 (T315I) and of EGFR (L858R and L858R/T790M) were chosen. The remaining 18 targets (3 Tyrosine Kinases-Like, TKLs; 15 Serine-Threonine Kinases, STKs) were selected among the remaining kinases in the ScanEDGE subset on the basis of their well established role in cancer (see Fig. S2 for a graphical representation of the selected kinases with reference to the kinome tree. Some references highlighting the role of each kinase in cancer are also reported in Table S3).
The compounds were evaluated using the KinomeScan™ platform (http://www.discoverx.com/services/drug-discovery-development-services/kinase-profiling/kinomescan), that measures the ability of the test compound to disrupt the complex between a high affinity ATP-mimic probe immobilized on a solid support and the kinase of interest. The KinomeScan is a very helpful technology for the fast and reliable screening of a number of compounds against a wide and customizable panel of kinases. Besides, it is not based on the use of hazardous radioactive ^32P-ATP and has a very low rate of false positive (<1%)[44]. The screening platform outputs a “Percent of Control” (POC) value, statistically correlated to the dissociation constant (Kd) value (http://www.discoverx.com/tools-resources/leadhunter-study-reports-data-analysis), for each pair of kinase/ligand. The POC is calculated as reported in equation (1):
Where: test compound signal = amount of kinase still binding the probe after treatment with test compound; negative control signal = amount of kinase still binding the probe after treatment with DMSO (100% control); positive control signal = amount of kinase still binding the probe after treatment with control compound (0% control).
The compounds were tested at high concentration (10 μM), in order to highlight not only the main target but also the off-targets. The results of the preliminary screening are reported as heat map (Fig. 4; see also Table S4 for all the measured values), in which the compounds are grouped on the basis of the 6 or 5 substituent at the pyrimidine ring.

HEK293 cells = assay: MTT cytotoxicity assay, non-tumor HEK293 cells; format: cell-based, human; conditions: Homo sapiens, HEK293; MTT test, 72 h, non-tumor cells; read-out: HEK293 IC50 (μM) ± SD
Protocol: F. Zunino (Division of Experimental Oncology B, Istituto Nazionale dei Tumori, Milan, Italy).
The growth inhibitory effect towards human cell lines was evaluated by means of MTT (tetrazolium salt reduction) assay. […] Triplicate cultures were established for each treatment.

2008 cells = assay: MTT cytotoxicity assay, 2008 ovarian cancer cells; format: cell-based; conditions: Homo sapiens; MTT test, 72 h; read-out: 2008 IC50 (μM) ± SD
Protocol: (§5) The cytotoxic profile of 19 and 27 was assessed on a wider panel of human tumor cell lines including also examples of breast (MCF-7), cervical (A431), colorectal (HCT-15), and ovarian (2008) cancers as well as melanoma (A375), besides lung (A549) and pancreatic (BxPC3) cancer cells. IC50 values, calculated from the dose-survival curves obtained after 72 h of drug treatment from the MTT test, are reported in Table 2. […] Both compounds were endowed with a cytotoxic potency higher than that of SU, eliciting IC50 values in the low micromolar range.
as §2
(§6) Human lung (A549), breast (MCF-7), pancreas (BxPC3), and colon (LoVo) carcinoma cell lines along with melanoma (A375) were obtained from American Type Culture Collection (ATCC, Rockville, MD). Human non-tumor embryonic kidney HEK293 cells were obtained from European Collection of Cell Cultures (ECACC, Salisbury, UK). Human cervical carcinoma A431cells were kindly provided by Prof. F. Zunino (Division of Experimental Oncology B, Istituto Nazionale dei Tumori, Milan, Italy). Human ovarian cancer 2008 cells were kindly provided by Prof. G. Marverti (Dept. of Biomedical Science of Modena University, Italy). […]
(§7) The growth inhibitory effect towards human cell lines was evaluated by means of MTT (tetrazolium salt reduction) assay. […] After overnight incubation, the inhibition of cell growth induced by the tested complexes was detected by measuring the absorbance of each well at 570 nm using a Bio-Rad 680 microplate reader (Bio-Rad, Hercules, CA). Mean absorbance for each drug dose was expressed as a percentage of the control untreated well absorbance and plotted vs drug concentration.

MCF-7 cells = assay: MTT cytotoxicity assay, MCF-7 breast cancer cells; format: cell-based; conditions: Homo sapiens, MCF7; MTT test, 72 h; read-out: MCF-7 IC50 (μM) ± SD
Protocol: as §5, §2, §6, §7

LoVo cells = assay: MTT cytotoxicity assay, LoVo colon carcinoma cells; format: cell-based; conditions: Homo sapiens, MTT test, 72 h, read-out: LoVo IC50 (μM) ± SD
Protocol: as §5, §2, §6, §7

A375 cells = assay: MTT cytotoxicity assay, A375 melanoma cells; format: cell-based; conditions: Homo sapiens, A-375; MTT test, 72 h; read-out: A375 IC50 (μM) ± SD
Protocol: as §5, §2, §6, §7

Compound	IC50 (A549 cells) [µM]	Potency relative to SU (A549) (A549 cells)	IC50 (BxPC3 cells) [µM]	Potency relative to SU (BxPC3) (BxPC3 cells)	Selectivity profile (kinases targeted) in primary screening (panel of 48 kinases)	melting point [°C]	IC50 (HEK293 cells) [µM]	IC50 (2008 cells) [µM]	IC50 (MCF-7 cells) [µM]	IC50 (LoVo cells) [µM]	IC50 (A375 cells) [µM]
Cc1cccc(Nc2cc(Nc3ccccc3)ncn2)c1 [Compound 1]	8.94 ± 2.18	0.70	6.43 ± 1.78	0.79	EGFR selective	254	–	–	–	–	–
c1ccc(Nc2cc(Nc3cccc(-c4ccccc4)c3)ncn2)cc1 [Compound 2]	26.5 ± 3.85	0.23	17.9 ± 2.46	0.28	–	267	–	–	–	–	–
Oc1cccc(Nc2cc(Nc3ccccc3)ncn2)c1 [Compound 3]	28.2 ± 5.46	0.22	8.19 ± 2.18	0.62	–	253	–	–	–	–	–
Cc1ccc(Nc2cc(Nc3ccccc3)ncn2)cc1 [Compound 4]	14.2 ± 2.75	0.44	23.2 ± 4.29	0.22	EGFR selective	265	–	–	–	–	–
Oc1ccc(Nc2cc(Nc3ccccc3)ncn2)cc1 [Compound 5]	16.3 ± 4.24	0.38	6.51 ± 1.07	0.78	EGFR; class III RTK; AXL	286	–	–	–	–	–
Nc1ccc(Nc2cc(Nc3ccccc3)ncn2)cc1 [Compound 6]	34 ± 4.98	0.18	16.1 ± 4.85	0.31	–	–	–	–	–	–	–
Cc1cccc(Nc2cc(Nc3cccc(C)c3)ncn2)c1 [Compound 8]	> 50	<0.12	> 50	<0.10	–	–	–	–	–	–	–
Brc1cccc(Nc2cc(Nc3cccc(Br)c3)ncn2)c1 [Compound 9]	> 50	<0.12	> 50	<0.10	–	243	–	–	–	–	–
Oc1ccc(Nc2cc(Nc3ccc(O)cc3)ncn2)cc1 [Compound 12]	> 50	<0.12	> 50	<0.10	EGFR; calss III RTK; AXL; TRKA; JAK3	–	–	–	–	–	–
Cc1cccc(Nc2cc(-c3ccccc3)ncn2)c1 [Compound 13]	–	–	–	–	Inactive	272	–	–	–	–	–
Cc1cccc(Nc2ncncc2-c2ccccc2)c1 [Compound 20]	–	–	–	–	Inactive	–	–	–	–	–	–
Oc1ccc(Nc2ncncc2-c2ccccc2)cc1 [Compound 24]	12.1 ± 1.99	0.51	16.4 ± 4.22	0.31	–	118	–	–	–	–	–
Nc1ccc(Nc2ncncc2-c2ccccc2)cc1 [Compound 25]	26.1 ± 4.55	0.24	27.9 ± 5.28	0.18	–	–	–	–	–	–	–
O=C(Nc1ccccc1)Nc1ccc(Nc2ncncc2-c2ccccc2)cc1 [Compound 26]	28.9 ± 5.86	0.21	30.9 ± 4.18	0.16	class III RTK	–	–	–	–	–	–
CCN(CC)CCNC(=O)c1c(C)[nH]c(/C=C2\C(=O)Nc3ccc(F)cc32)c1C [SU, sunitinib, reference compound]	6.22 ± 1.84	–	5.05 ± 1.34	–	–	–	12.2 ± 2.83	3.52 ± 1.22	2.58 ± 0.85	8.18 ± 2.67	8.25 ± 2.88
